Reference: patent US20170058319A1, “NANOSENSOR FOR ASSESSING THROMBIN INHIBITORS” (VIRGINIA COMMONWEALTH UNIVERSITY, priority 2014, published 2017)
“Also recorded” adds a separate entry of the source.

How the values were obtained:
[1] = molecular target: T1, surface bound thrombin on the AuNP (Bos taurus, UniProt P00735); experiment: Reactivity of surface bound thrombin to antithrombin, chromogenic substrate hydrolysis assay; type: biochemical, bovine; settings: AT alone
T1 construct: An aliquot of bovine α-thrombin (200 μg) from a stock solution; purchased Haematologic Technologies, Vermont, USA BCT-1020
Protocol: To test if the surface bound thrombin on the AuNP is reactive towards antithrombin, chromogenic substrate hydrolysis assay like the one mentioned above was performed in the presence of antithrombin and heparin. In a 96-well microplate, 80 μL of PBS buffer was mixed with 5 μL of either AuNP or water. Following this, 5 μL of AT (100 μM) and 5 μL of heparin (3.6 mM) was added and the mixtures were incubated at 25° C. for 20 minutes. Controls were kept with and without AT and heparin, respectively. After incubation, 5 μL of 5 mM Spectrozyme TH was added and the rate of substrate hydrolysis was monitored by observing the absorbance at 405 nm. The velocity of the substrate hydrolysis as obtained by the slope was compared to that of the controls in order to assess the reactivity of the thrombin towards AT (FIG. 6). An approximate 70% reactivity towards AT in the presence of heparin is observed for the AuNP-TH sample.

[2] = molecular target: T2, Au-TH-HirP nanoprobe (NSET pair) (Bos taurus, UniProt P00735); experiment: Probing antithrombin levels in buffer with Au-TH-HirP nanoprobe (NSET pair); type: binding, bovine; settings: for increase in fluorescence at 525 nm: 1 hr incubation
T2 construct: An aliquot of bovine α-thrombin (200 μg) from a stock solution; purchased Haematologic Technologies, Vermont, USA BCT-1020
Protocol: Au-TH-NP (6 nM, 50 μL) and HirP (50 μL, 30 nM) were mixed with 20 mM Tris-HCl buffer, pH 7.4, containing 100 mM NaCl, 2.5 mM CaCl2 and 0.1% PEG8000 and used as the standard nano-metal surface energy transfer (NSET) pair. Antithrombin (AT) was serially diluted starting from 100 μM to 1 pM by adding 20 mM Tris-HCl buffer, pH 7.4. Serially diluted AT solutions were then incubated with standard NSET pair in a 96-well plate for 0-1 h at RT with gentle rocking. A solution of 100 μL of Au-TH-HirP nanoprobe (NSET pair) mixed with 50 μL of buffer was used a control (F0). After 1 h of incubation, the 96-well plate was read at 525 nm (λex=488 nm) (F). A plot of F/F0 as Y-axis against AT concentration as X-axis is shown as FIG. 5. […] The fluorescence increases were smaller at 15, 30 and 45 min timepoints (FIG. 5).

AT levels = settings: in vivo; cited from earlier work
Au-TH nanoprobe = molecular target: T3, Au-TH nanoprobe (Bos taurus, UniProt P00735); experiment: Quenching of [5F]-hirudin (54-65) SO3- fluorescence by Au-TH nanoprobe; type: binding, bovine; settings: 30 nM HirP, 0.5 h at RT, 525 nm (λex=488 nm)
T3 construct: An aliquot of bovine α-thrombin (200 μg) from a stock solution; purchased Haematologic Technologies, Vermont, USA BCT-1020

[3] = molecular target: T4, NSET pair (Au-TH-NS and HirP) (Bos taurus, UniProt P00735); experiment: Probing antithrombin levels in plasma with NSET pair; type: binding, bovine; settings: 600 μM BSA, 5-20 μL
T4 construct: An aliquot of bovine α-thrombin (200 μg) from a stock solution; purchased Haematologic Technologies, Vermont, USA BCT-1020
Protocol: A 96-well plate was used for this experiment. The baseline fluorescence of the NSET pair (Au-TH-NS (6 nM, 50 μL) and HirP (50 μL, 30 nM) in 50 μL of 20 mM Tris-HCl buffer, pH 7.4, containing 100 mM NaCl, 2.5 mM CaCl2 and 0.1% PEG8000) was measured by recording the fluorescence emission at 525 nm (λex=488 nm). The NSET pair was then incubated with different volumes of plasma (5 μL, 10 μL, 15 μL and 20 μL). To assess specificity of AT reaction, the NSET pair was also incubated with 600 μM BSA (5 μL, […], 15 μL and 20 μL). The fluorescence intensity was recorded within 1-3 min after incubation began (FIG. 6).

[4] = in vivo; cited from earlier work
PF-4 heparin complex = molecular target: T5, PF-4 heparin complex (Homo sapiens, UniProt P02776); settings: in vivo; cited from earlier work
T5 sequence (P02776 32-101): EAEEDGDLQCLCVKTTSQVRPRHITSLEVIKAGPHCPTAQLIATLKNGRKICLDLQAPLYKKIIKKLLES

[5] = cited from earlier work
[6] = Protocol: Stability of Au-TH nanoparticles was studied at RT and at −80° C. The NPs were kept in dark at RT for six hours and at −80° C. for 1 month. Absorbance spectra were measured every hour.
[7] = Catalytic activity of surface bound thrombin, Michaelis Menten kinetics; type: biochemical; settings: PBS pH 7.4, 37° C., Spectrozyme TH 0.7-750 μM
Protocol: Michaelis Menten kinetics were utilized to test the catalytic activity of the surface bound thrombin on the AuNP-TH using a microplate chromogenic substrate hydrolysis assay. Briefly, 165 μL aliquots of PBS buffer pH 7.4 were placed in a 96-well microplate, to which either 5 μL of thrombin at a concentration of 0.04 mg/ml (1 μM) or 5 μL of AuNP-TH was added. The solution was incubated for 5 minutes at 37° C., followed by addition of 30 μL of serial dilutions of Spectrozyme TH substrate such that the final concentrations ranged from 0.7-750 μM. The velocity of substrate hydrolysis was measured by monitoring the slope of the increase in absorbance at 405 nm. A plot of velocity of substrate hydrolysis (v) vs substrate concentration ([S]) (FIG. 5) was fit to the Michaelis Menten equation below to yield the Michaelis Menten constant (KM) and maximum velocity of the reaction (VMAX), which are a direct measure of the catalytic efficiency of the enzyme.

antithrombin [AT]
neutralization of surface bound thrombin by AT [1]: up to 60%
fluorescence increases at earlier timepoints ([2]; 15, 30 and 45 min timepoints versus 1 hr): smaller
increase in fluorescence at 525 nm ([2]; AT 1 μM): approximately 40%
increase in fluorescence at 525 nm ([2]; AT 10 μM): ~25
increase in fluorescence at 525 nm ([2]; AT 100 μM): ~20%
increase in fluorescence ([2]; AT concentrations less than 1 μM): Noticeable increases

heparin
incidence of acquired AT deficiency (AT levels): ≤ 25%

[5F]-hirudin (54-65) SO3^− [HirP]
quenching of fluorescence from HirP (Au-TH nanoprobe): approximately 86%

bovine serum albumin [BSA]
change in emission intensity [3]: significant decrease; also recorded: Corresponding increases were not observed

bivalirudin
half-life [4]: 25 min

unfractionated heparin [UFH]
patients forming antibodies to PF-4 heparin (PF-4 heparin complex): 30-40%

CCCCCCOC(=O)NC(=N)c1ccc(NCc2nc3cc(C(=O)N(CCC(=O)OCC)c4ccccn4)ccc3n2C)cc1 [Dabigatran etexilate]
liver function tests ([5]; doses as high as 300 mg twice a day for 12 weeks): no abnormal liver function tests
patients who developed significant bleeding ([5]; trial with and without aspirin): approximately 11%

Au-TH nanoparticles: gold nanoparticles covalently linked to bovine alpha-thrombin
stability, change in absorbance spectra ([6]; RT, in dark, six hours): essentially no change
stability, degradation on storage ([6]; −80° C., 1 month): did not exhibit any degradation
VMAX and KM / catalytic efficiency compared with free thrombin ([7]; listed as Au-TH NP): identical to that of free thrombin
VMAX and KM / catalytic efficiency compared with free thrombin ([7]; listed as AuNP-TH): remain almost the same as that of free thrombin
